Values belong to the compound of their own block, whether it stands above or below them.
Columns and labels:
Termitomyces clypeatus [1] = test: Endo-glucanase activity of culture filtrate (carboxy methylcellulose, dinitrosalicylic acid reagent); assay type: cell-based; settings: for endo-glucanase: 4 days, pH 4.5
Protocol: (§1) The fungus is maintained in agar slants containing (w/w) glucose 5%, potato extract 10%, malt extract 5%, KH2PO4 0.087%, MgSO4, 7H2O 0.05%. Cultivation of the fungus is carried out between temperatures 20-37° C., preferably at 28-30° C. and at pH between 3-8, preferably at 4-6, under aerobic condition in shake flask in liquid medium on a rotary shaker (200-300 strokes per minute). Among the assimilable carbon sources (cellobiose, mannose, fructose, xylose, arabinose, starch, dextrin, cellulose, cotton, xylan and agrowastes like baggasse powder, rice-straw powder, wheat bran, corn cob powder, corn powder; in presence of TCA cycle acids like succinate, fumarate, maleate or amino acids like aspartate, glutamate, serine, histidine and alanine or glucose analogues like D-glucosamine) D-cellobiose with succinate served as one of the best carbon sources in the concentration range of 0.5-2%(w/v). Among the assimilable nitrogen sources (ammonium chloride, ammonium nitrate, ammonium di hydrogen phosphate, potassium nitrate and organic nitrogen sources such as malt extract, yeast extract, potato extract, soya-peptone and bactopeptone) ammonium di hydrogen phosphate was used. Among the glycosylation inhibitors (Tunicamycin, deoxynojirimycin, 2-deoxy-D-glucose and D-glucono-lactone) 2-deoxy glucose was preferred (Table 1). Detergents used were Tween 20, Tween-80, or Tween-100. Initial pH of the medium may be maintained at 3-7, preferably at 4.5. Inoculum is prepared in the medium in polypropylene conical flask with sterile glass balls (1-1.5 cm in diameter) 3-4 numbers in 250-ml flask. The fine mycelia grown in liquid medium after 2-4 days of growth were added to the fermentation medium at the ratio of 1:10 (v/v). Optimum production of enzyme took place after 3 days of inoculation, between 4-6th days. The culture filtrate is freed from mycelia by any known method of filtration. Cellobiase activity of the culture medium was assayed using p-nitro phenyl β-D-glucoside as substrate. Reference may be made to Khowala. S. And Sengupta. S. (1992) Enzyme and microbial Technology, volume 14, pages144-149. One unit of activity was taken as the amount of enzyme, which could liberate one micromole of p-nitro phenol from p-nitro phenyl β-D-glucoside in the reaction mixture incubated at 50° C. for 30 minutes (Table 1 and 2). Endo-glucanase and cellobiohydrolase activities were measured by dinitrosalicylic acid reagent using carboxy methylcellulose (Sigma chemical co.) and crystalline cellulose (Sigma chemical co.) respectively as substrate (Table 2). Reference may be made to Sumner J. B. and Sumner G. (1949) in Laboratory Experiments in Chemistry, Academic press, New York, page 38. One unit of enzyme was considered as the amount of enzyme that could liberate one micromole of glucose equivalent per minute in buffer at pH 5.0 at 50° C.
(§2) The fungus Termitomyces clypeatus IICB-411 was grown in a medium containing (w/w, %): Cellobiose 1, 2-deoxy-D-glucose 0.30, sodium succinate 0.5, KH2PO4 0.087, MgSO4, 7H2O 0.05 at pH 4.5. The 250 ml conical flask containing 50 ml of medium were autoclaved for 20 minutes at 15 pounds per square inch pressure, where separately autoclaved ammonium di hydrogen orthophosphate at the concentration of 2.4% w/w was added to the medium after sterilization. The medium was cooled and was inoculated at the rate of 10% mycelia (blended) of the fungus developed earlier in flasks with glass marbles. The culture was grown in the medium for 4 days at temperatures 28°-32° C. on a rotary-shaker. The culture filtrate was freed from mycelia and the clear supernatant was used as a source of enzymes. Cellobiase activity was 90 units per ml, endo-glucanase was 4.5 units per ml, and cellobiohydrolase was 3.5 units per ml, respectively. Cellobiase activity in absence of 2-deoxy-D-glucose in the control medium was 1.44 units per ml. […]

Termitomyces clypeatus [2] = test: Cellobiase activity of culture filtrate of Termitomyces clypeatus grown with glycosylation inhibitors (p-nitro phenyl β-D-glucoside substrate); assay type: cell-based; settings: for Maximum cellobiase activity: Termitomyces clypeatus in presence of 2-deoxyglucose
Protocol: as §1
[…] The 250 ml conical flask containing 50 ml of medium were autoclaved for 20 minutes at 15 pounds per square inch pressure, where separately autoclaved ammonium di hydrogen orthophosphate at the concentration of 2.4% w/w was added to the medium after sterilization. The medium was cooled and was inoculated at the rate of 10% mycelia (blended) of the fungus developed earlier in flasks with glass marbles. The culture was grown in the medium for 4 days at temperatures 28°-32° C. on a rotary-shaker. The culture filtrate was freed from mycelia and the clear supernatant was used as a source of enzymes. Cellobiase activity was 90 units per ml, endo-glucanase was 4.5 units per ml, and cellobiohydrolase was 3.5 units per ml, respectively. Cellobiase activity in absence of 2-deoxy-D-glucose in the control medium was 1.44 units per ml.
The fungus Termitomyces clypeatus IICB-411 was grown in a medium containing (w/w, %): Cellobiose 1, 2-deoxy-D-glucose 0.5, mannose 0.5, sodium succinate 0.5, KH2PO4 0.087, MgSO4, 7H2O 0.05 at pH 4.5. […]

Dichomitus squalenes = test: Cellobiase activity of Dichomitus squalenes in a similar medium; assay type: cell-based; settings: Dichomitus squalenes in presence of 2-deoxyglucose
T. clypeatus = test: Growth of the fungus T. clypeatus in presence of 2-deoxy-D-glucose; assay type: cell-based, Termitomyces clypeatus; settings: at higher concentrations (above 0.05 to 5% w/v)
Text: The inventive step is the addition of 2-deoxy-D-glucose in the growth medium in presence of assimilable carbon and nitrogen sources and other nutrients. 2-deoxy-D-glucose is non-fermentable analogue of glucose and mannose, and is known to interfere in formation of wall polysaccharides in yeast [Reference may be made to European Journal of Biochemistry (1975), Volume 54, pages 459-467] and to increase protein secretion in Trichoderma reesei [Reference may be made to Journal of General Microbiology (1989) Volume 135, pages 301-307]; but it acts as a glycosylation inhibitor, increases synthesis and secretion of extracellular proteins in Termitomyces clypeatus, when used in the concentration range of 0.05 to 5%(w/v) and high cellobiase activity is produced in presence of cellobiose, as determined in the applicants laboratory.

Termitomyces clypeatus [3] = test: Cellobiohydrolase activity of culture filtrate (crystalline cellulose, dinitrosalicylic acid reagent); assay type: cell-based; settings: for cellobiohydrolase: 4 days, pH 4.5
Protocol: as §1, §2

Trichoderma reesei = settings: cited from earlier work
[4] = Control medium + 2-deoxy-D-glucose 300 μg/ml (Example 2), Table 2
[5] = Control medium + 2-deoxy-D-glucose 1 mg/ml + Mannose 500 μg/ml
[6] = Control medium + 2-deoxyglucose 1 mg/ml (Example 1), Table 2
[7] = Example 1: 2-deoxy-D-glucose 0.30 % w/w
[8] = Example 2: 2-deoxy-D-glucose 0.5 % + mannose 0.5 % w/w
[9] = Example 3: 2-deoxy-D-glucose 1 % w/w

enhanced production and secretion of enzyme (Termitomyces clypeatus [2]; at lower concentrations): the effect is not observed
Compound: O=CC[C@@H](O)[C@H](O)[C@H](O)CO [2-deoxy-D-glucose]
Endo-glucanase activity (Termitomyces clypeatus [1]; [4]): 4.637 units/ml
Endo-glucanase activity (Termitomyces clypeatus [1]; [5]): 1.086 units/ml
Endo-glucanase activity (Termitomyces clypeatus [1]; [6]): 4.112 units/ml
endo-glucanase (Termitomyces clypeatus [1]; [7]): 4.5 units per ml
endo-glucanase (Termitomyces clypeatus [1]; [8]): 6 units per ml
endo-glucanase (Termitomyces clypeatus [1]; [9]): 4 units per ml
Cellobiase activity (Termitomyces clypeatus [2]; Control + 2-deoxy-D-glucose 0.05 mg/ml): 2.236 units/ml
Cellobiase activity (Termitomyces clypeatus [2]; Control + 2-deoxy-D-glucose 1 mg/ml): 50.097 units/ml
Cellobiase activity (Termitomyces clypeatus [2]; Control + 2-deoxy-D-glucose 5 mg/ml): 0.081 units/ml
Cellobiase activity (Termitomyces clypeatus [2]; [4]): 90.020 units/ml
Cellobiase activity (Termitomyces clypeatus [2]; [5]): 140.60 units/ml
Cellobiase activity (Termitomyces clypeatus [2]; [6]): 50.097 units/ml
Cellobiase activity (Termitomyces clypeatus [2]; Example 1: 2-deoxy-D-glucose 0.30 % w/w, 4 days, pH 4.5): 90 units per ml
Cellobiase activity (Termitomyces clypeatus [2]; Example 2: 2-deoxy-D-glucose 0.5 % + mannose 0.5 % w/w, 4 days, pH 4.5): 140 units per ml
Cellobiase activity (Termitomyces clypeatus [2]; Example 3: 2-deoxy-D-glucose 1 % w/w, 4 days, pH 4.5): 50 units per ml
Maximum cellobiase activity (Termitomyces clypeatus [2]; Example-1): 90.0 U/ml
Maximum cellobiase activity (Termitomyces clypeatus [2]; Example-2): 140.0 U/ml
Maximum cellobiase activity (Termitomyces clypeatus [2]; Example-3): 50.0 U/ml
Maximum cellobiase activity (Dichomitus squalenes): 0.05^C U/ml
growth of the fungus (T. clypeatus): inhibit growth
Cellobiohydrolase activity (Termitomyces clypeatus [3]; [4]): 3.600 units/ml
Cellobiohydrolase activity (Termitomyces clypeatus [3]; [5]): 4.873 units/ml
Cellobiohydrolase activity (Termitomyces clypeatus [3]; [6]): 3.546 units/ml
cellobiohydrolase (Termitomyces clypeatus [3]; [7]): 3.5 units per ml
cellobiohydrolase (Termitomyces clypeatus [3]; [8]): 3.5 units per ml
cellobiohydrolase (Termitomyces clypeatus [3]; [9]): 3.5 units per ml
biosynthesis of extracellular as well as intracellular protein (Trichoderma reesei; 2-deoxy-D-glucose 0-150 μg/ml): inhibited

Compound: Tunicamycin
Cellobiase activity (Termitomyces clypeatus [2]; Control + Tunicamycin 10 μg/ml): 1.2075 units/ml
effect on secretion of proteins (Trichoderma reesei; Tunicamycin 0-50 μg/ml): no effect

Compound: O=C1O[C@H](CO)[C@@H](O)[C@H](O)[C@H]1O [glucono-lactone, D-glucono-lactone]
Cellobiase activity (Termitomyces clypeatus [2]; Control + glucono-lactone 2 mg/ml): 6.1820 units/ml

Compound: OC[C@H]1NC[C@H](O)[C@@H](O)[C@@H]1O [1-deoxynojirimycin]
Cellobiase activity (Termitomyces clypeatus [2]; Control + 1-deoxynojirimycin 80 μM): 1.4085 units/ml

— patent US6946277B2, “Method for enhancing cellobiase activity of termitomyces clypeatus using a glycosylation inhibitor” (Council of Scientific and Industrial Research, priority 2001, dated 2005)
